The source of these data is ChEMBL document CHEMBL4177646, “Discovery of novel nitroimidazole enols as Pseudomonas aeruginosa DNA cleavage agents” (Bioorg Med Chem, 2017).

Converted amounts (≈) assume the structure as drawn. The source made the active and inactive calls. No cut-off for these calls is given here.

For series [1], the system named is Staphylococcus aureus. Description: Antibacterial activity against methicillin-resistant Staphylococcus aureus N315 after 24 hrs by micro broth dilution method. The following applies: N315, 24 h. It counts as functional. A general note: Dilution methods test growth across graded concentrations, often in twofold steps.
Series [2] concerns Staphylococcus aureus. In words: Antibacterial activity against drug-resistant Staphylococcus aureus after 24 hrs by micro broth dilution method. It counts as functional.
In series [3] the test system is Staphylococcus aureus. Description: Antibacterial activity against Staphylococcus aureus ATCC 25923 after 24 hrs by micro broth dilution method. The settings on record: ATCC 25923, 24 h. The class given is functional.
In series [4] the test system is Staphylococcus aureus. In words: Antibacterial activity against Staphylococcus aureus ATCC 29213 after 24 hrs by micro broth dilution method. The following applies: ATCC 29213, 24 h. It counts as functional.
Series [5] has as its system Escherichia coli. In words: Antibacterial activity against drug-resistant Escherichia coli after 24 hrs by micro broth dilution method. It counts as functional.
The subject of series [6] is Escherichia coli. In words: Antibacterial activity against Escherichia coli ATCC 25922 after 24 hrs by micro broth dilution method. It counts as functional. The following applies: ATCC 25922, 24 h.
Series [7] deals with Pseudomonas aeruginosa. In words: Antibacterial activity against drug-resistant Pseudomonas aeruginosa after 24 hrs by micro broth dilution method. It counts as functional.
Series [8] relates to Pseudomonas aeruginosa. Description: Antibacterial activity against Pseudomonas aeruginosa ATCC 27853 after 24 hrs by micro broth dilution method. It counts as functional. The settings on record: ATCC 27853, 24 h.
Series [9] has as its system Candida albicans. In words: Antifungal activity against drug-resistant Candida albicans after 24 hrs by micro broth dilution method. The class given is functional.
The test system of series [10] is Candida albicans. In words: Antifungal activity against Candida albicans ATCC 90023 after 24 hrs by micro broth dilution method. It counts as functional. The settings on record: ATCC 90023, 24 h.
In series [11] the test system is Candida tropicalis. In words: Antifungal activity against Candida tropicalis after 24 hrs by micro broth dilution method. It counts as functional.
In series [12] the test system is Pseudomonas aeruginosa. Description: Bactericidal activity against drug sensitive Pseudomonas aeruginosa assessed as bacterial load at 4 times MIC after 120 mins by time-kill assay (reference value: 9.3 10^5 CFU/ml). The class given is functional.
Series [13] deals with Pseudomonas aeruginosa. In words: Bactericidal activity against drug sensitive Pseudomonas aeruginosa assessed as bacterial load at 4 times MIC after 150 mins by time-kill assay (reference value: 4.3 10^6 CFU/ml). The class given is functional.
In series [14] the test system is Pseudomonas aeruginosa. In words: Bactericidal activity against drug sensitive Pseudomonas aeruginosa assessed as bacterial load at 4 times MIC after 180 mins by time-kill assay (reference value: 3.5 10^7 CFU/ml). The class given is functional.
Series [15] deals with Pseudomonas aeruginosa. Description: Bactericidal activity against drug sensitive Pseudomonas aeruginosa assessed as bacterial load at 4 times MIC after 210 mins by time-kill assay (reference value: 3.2 10^9 CFU/ml). The class given is functional.
Series [16] deals with Pseudomonas aeruginosa. In words: Bactericidal activity against drug sensitive Pseudomonas aeruginosa assessed as bacterial load at 4 times MIC after 240 mins by time-kill assay (reference value: 1.1 10^10 CFU/ml). The class given is functional.
The test system of series [17] is Pseudomonas aeruginosa. Description: Bactericidal activity against drug sensitive Pseudomonas aeruginosa assessed as bacterial load at 4 times MIC after 270 mins by time-kill assay (reference value: 1.8 10^10 CFU/ml). The class given is functional.
Series [18] has as its system DNA. Description: Binding affinity to sensitive Pseudomonas aeruginosa DNA assessed as hypochromic effect at 3.81 x 10^-6mol/L by neutral red dye based UV-vis spectroscopic method. The class given is nucleic-acid assay.
The test system of series [19] is DNA. Description: Induction of sensitive Pseudomonas aeruginosa DNA cleavage at 75 uM by ethidium bromide staining-based agarose gel electrophoresis. The class given is nucleic-acid assay.
In series [20] the test system is Pseudomonas aeruginosa. In words: Bactericidal activity against drug sensitive Pseudomonas aeruginosa assessed as log reduction in bacterial load at 4 times MIC after 120 mins by time-kill assay. The class given is functional.
Series [21] deals with T1, Albumin (Homo sapiens, UniProt P02768). In words: Binding affinity to HSA assessed as Stern-Volmer quenching constant at pH 7.4 at 290 K by fluorescence assay. The settings on record: isolated protein. The class given is ADME.
Series [22] has as its target T1, Albumin. In words: Binding affinity to HSA assessed as Stern-Volmer quenching constant at pH 7.4 at 300 K by fluorescence assay. The following applies: isolated protein. It counts as ADME.
Series [23] concerns the target T1, Albumin. In words: Binding affinity to HSA assessed as Stern-Volmer quenching constant at pH 7.4 at 313 K by fluorescence assay. The class given is ADME. The settings on record: isolated protein.
In series [24] the target is T1, Albumin. In words: Binding affinity to HSA assessed as biomolecular quenching rate constant at pH 7.4 at 290 K by fluorescence assay. The class given is ADME. The settings on record: isolated protein.
The target of series [25] is T1, Albumin. In words: Binding affinity to HSA assessed as biomolecular quenching rate constant at pH 7.4 at 300 K by fluorescence assay. It counts as ADME. The following applies: isolated protein.
Series [26] deals with T1, Albumin. In words: Binding affinity to HSA assessed as biomolecular quenching rate constant at pH 7.4 at 313 K by fluorescence assay. The class given is ADME. The settings on record: isolated protein.
Series [27] addresses T1, Albumin. Description: Binding affinity to HSA assessed as modified Stern-Volmer quenching constant at pH 7.4 at 290 K by fluorescence assay. It counts as ADME. The settings on record: isolated protein.
For series [28], the target named is T1, Albumin. Description: Binding affinity to HSA assessed as modified Stern-Volmer quenching constant at pH 7.4 at 300 K by fluorescence assay. It counts as ADME. The settings on record: isolated protein.
The target of series [29] is T1, Albumin. Description: Binding affinity to HSA assessed as modified Stern-Volmer quenching constant at pH 7.4 at 313 K by fluorescence assay. It counts as ADME. The following applies: isolated protein.
The target of series [30] is T1, Albumin. In words: Binding affinity to HSA assessed as equilibrium binding constant at pH 7.4 at 290 K by scatchard assay. It counts as ADME. The following applies: isolated protein.
For series [31], the target named is T1, Albumin. Description: Binding affinity to HSA assessed as equilibrium binding constant at pH 7.4 at 300 K by scatchard assay. The settings on record: isolated protein. The class given is ADME.
The target in series [32] is T1, Albumin. Description: Binding affinity to HSA assessed as equilibrium binding constant at pH 7.4 at 313 K by scatchard assay. The settings on record: isolated protein. The class given is ADME.
In series [33] the test system is Pseudomonas aeruginosa. Description: Potency index, ratio of norfloxacin MIC to compound MIC for Pseudomonas aeruginosa ATCC 27853. It counts as functional.
Series [34] has as its system Candida tropicalis. Description: Potency index, ratio of fluconazole MIC to compound MIC for Candida tropicalis. It counts as functional.
The subject of series [35] is DNA. In words: Binding affinity to sensitive Pseudomonas aeruginosa DNA assessed as hypochromic effect by neutral red dye based UV-vis spectroscopic method. It counts as nucleic-acid assay.
For series [36], the system named is Pseudomonas aeruginosa. Description: Potency index, ratio of metronidazole MIC to compound MIC for Pseudomonas aeruginosa ATCC 27853. It counts as functional.

T1 sequence (P02768 whole entry): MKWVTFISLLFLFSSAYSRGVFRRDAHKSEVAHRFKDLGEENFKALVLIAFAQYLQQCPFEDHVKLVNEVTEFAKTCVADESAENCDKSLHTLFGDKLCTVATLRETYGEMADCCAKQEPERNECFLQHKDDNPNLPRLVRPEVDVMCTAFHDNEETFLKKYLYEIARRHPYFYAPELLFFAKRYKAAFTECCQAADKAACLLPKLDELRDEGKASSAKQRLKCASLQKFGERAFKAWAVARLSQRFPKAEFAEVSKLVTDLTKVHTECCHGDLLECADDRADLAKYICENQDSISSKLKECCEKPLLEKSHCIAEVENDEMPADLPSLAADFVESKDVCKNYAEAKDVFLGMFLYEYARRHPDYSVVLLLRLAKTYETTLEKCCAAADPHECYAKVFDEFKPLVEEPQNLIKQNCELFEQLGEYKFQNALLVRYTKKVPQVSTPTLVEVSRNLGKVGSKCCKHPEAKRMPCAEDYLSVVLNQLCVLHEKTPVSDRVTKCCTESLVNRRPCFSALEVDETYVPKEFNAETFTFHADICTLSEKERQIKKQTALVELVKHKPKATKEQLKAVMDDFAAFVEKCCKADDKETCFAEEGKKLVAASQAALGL

In the case of `COc1cc(/C=C(\C(C)O)n2c([N+](=O)[O-])cnc2C)ccc1O` (stereo not drawn), the MIC in [1] is 1600 µM (≈ 511 µg/mL); in series [2], 1600 µM (≈ 511 µg/mL); in [3], 800 µM (≈ 255 µg/mL); in series [4], 800 µM (≈ 255 µg/mL); in [5] it was 1600 µM (≈ 511 µg/mL); in series [6], 400 µM (≈ 128 µg/mL). Besides, the minimal inhibitory concentration (MIC) in series [7] was 400 µM (≈ 128 µg/mL); in [8], 100 µM (≈ 31.9 µg/mL); in series [9], 256 µg/mL (≈ 802 µM); in series [10], 32 µg/mL (≈ 100 µM); in [11], 128 µg/mL (≈ 401 µM). Further, the Activity in [12] amounted to 9.3 ×10⁶ CFU/ml; in series [13] it was 3 ×10³ CFU/ml; in [14], 1.5 ×10² CFU/ml; in series [15], 87 CFU/ml; in series [16], 72 CFU/ml; in series [17] it was 65 CFU/ml. The Activity in series [20] was over 3.5 log10CFU/ml. Besides, the result in [18] and in [19] was Active. Moreover, the KSV turned out to be 7.54 ×10⁴ L/mol in series [21]; 6.12 ×10⁴ L/mol in series [22]; 4.99 ×10⁴ L/mol in series [23]; 82200 M⁻¹ in series [27]; 61800 M⁻¹ in series [28]; 47400 M⁻¹ in [29]. In addition, the Kq came out at 1.18 ×10¹³ L/mol/s in [24], 9.56 ×10¹³ L/mol/s in series [25] and 7.79 ×10¹³ L/mol/s in [26]. Moreover, the Kb in series [30] is listed as 4.77 ×10⁴ L/mol; in [31] it was 4.77 ×10⁴ L/mol; in series [32], 4.83 ×10⁴ L/mol. The results for the Ratio in [33] and in series [34] were 4 - 16 and 4, respectively. For the same compound, the K in [35] was determined as 1.83 ×10⁴ L/mol.
With `Cc1ncc([N+](=O)[O-])n1/C(=C/c1ccc(N(C)C)cc1)C(C)O` (stereo not drawn), the minimum inhibitory concentration (MIC) stood at 1620 µM (≈ 513 µg/mL) in [1]; 1620 µM (≈ 513 µg/mL) in series [2]; 810 µM (≈ 256 µg/mL) in series [3]; 1620 µM (≈ 513 µg/mL) in [4]; 1620 µM (≈ 513 µg/mL) in series [5]; 810 µM (≈ 256 µg/mL) in series [6]. Also, the MIC in series [7] was 1620 µM (≈ 513 µg/mL); in [8], 400 µM (≈ 127 µg/mL); in [9], 512 µg/mL (≈ 1620 µM); in series [10] it was 64 µg/mL (≈ 202 µM); in series [11] it was 128 µg/mL (≈ 405 µM). In addition, the Ratio was found to be 4 in series [33] and 7 in [36].

For orientation: MIC means the least concentration at which growth counts as inhibited.
